“And” between values parts separate entries of the source, which are not always exact repeats. Identical values can stand only once. Like-named read-outs stand apart in the source and are kept apart here.
Assays:
Format in all cases: cell-based
[1] = system: Hela; assay: MTT cell viability assay, Hela
Protocol: (§1) All cell lines were cultured at 37 °C with 5% CO2 in a humidified incubator. HeLa cells were grown in MEM (Gibco) supplemented with 10% fetal bovine serum (FBS, Hyclone) and 1% penicillin/streptomycin (Gibco). MIA PaCa-2, MDA-MB-231, A549, MCF-7, A375 and BEAS-2B cells were grown in DMEM (Gibco) supplemented with 10% FBS and 1% penicillin/streptomycin. CT26, and HCT116 cells were grown in RPMI-1640 supplemented with 10% FBS and 1% penicillin/streptomycin. All cell lines were purchased from the National Collection of Authenticated Cell Cultures (China).
(§2) The antiproliferative activities of the prepared compounds against tested cell lines were evaluated using a standard (MTT)-based colorimetric assay. Cells were plated at a density of 3000 cells/well in 96-well plates and allowed to adhere overnight. Then cells were treated with varying concentrations of synthesized compounds for 72 h. At the end of treatment, 20 μL of thiazolyl blue tetrazolium bromide (MTT) solution (5 mg/mL) was added to each well. Cells were incubated for an additional 4 h at 37 °C and then the medium was removed and replaced with 200 μL of DMSO. The absorbance (OD490) was read on a microplate reader (SpectraMax i3x, Molecular Devices, US). In all experiments, three replicate wells were used for each drug concentration. Each assay was performed at least three times. The IC50 values were calculated by GraphPad Prism 9, which were the mean values derived from three independent experiments.

[2] = system: MCF-7; assay: MTT cell viability assay, MCF-7
Protocol: as §1, §2

[3] = system: MIA PaCa-2; assay: MTT cell viability assay, MIA PaCa-2
Protocol: as §1, §2

[4] = system: MDA-MB-231; assay: MTT cell viability assay, MDA-MB-231
Protocol: as §1, §2

[5] = system: CT26; assay: MTT cell viability assay, CT26
Protocol: as §1, §2

[6] = system: HCT 116; assay: MTT cell viability assay, HCT 116
Protocol: as §1, §2

[7] = system: A549; assay: MTT cell viability assay, A549
Protocol: as §1, §2

[8] = MTT cytotoxicity towards normal cells, BEAS-2B; settings: human; for IC50 at 72 h: BEAS-2B lung epithelial cells (normal cells), source data sheet, single values of three experiments; for CC50 at 72 h: BEAS-2B lung epithelial cells, MTT, cytotoxicity towards normal cells, mean of at least three independent experiments
Protocol: as §1, §2

[9] = system: A375; assay: MTT cell viability assay, A375
Protocol: as §1, §2

[10] = system: lung epithelial BEAS-2B cells; assay: MTT cytotoxicity towards normal cells, BEAS-2B; settings: for CC50: MTT, 72 h, cytotoxicity towards normal cells, mean of at least three independent experiments; for IC50: source data sheet, single values of three experiments
Protocol: as §1, §2

[11] = system: cancer cell lines; assay: In vitro cancer cell assays (antiproliferation, cell line not given); settings: cell line not given
Protocol: as §1, §2

[12] = Homo sapiens, HeLa, 72 h, MTT, 72 h, mean of at least three independent experiments, read-out: IC50 Hela
[13] = Homo sapiens, HeLa, source data sheet, single values of three experiments, read-out: MTT IC50 Hela
[14] = source data sheet, single values of three experiments, read-out: MTT IC50 Hela
[15] = Homo sapiens, MCF7, 72 h, MTT, 72 h, mean of at least three independent experiments, read-out: IC50 MCF-7
[16] = Homo sapiens, MCF7, source data sheet, single values of three experiments, read-out: MTT IC50 MCF-7
[17] = source data sheet, single values of three experiments, read-out: MTT IC50 MCF-7
[18] = Homo sapiens, MIA PaCa-2, 72 h, MTT, 72 h, mean of at least three independent experiments, read-out: IC50 MIA PaCa-2
[19] = Homo sapiens, MIA PaCa-2, source data sheet, single values of three experiments, read-out: MTT IC50 MIA PaCa-2
[20] = source data sheet, single values of three experiments, read-out: MTT IC50 MIA PaCa-2
[21] = Homo sapiens, MDA-MB-231, 72 h, MTT, 72 h, mean of at least three independent experiments, read-out: IC50 MDA-MB-231
[22] = Homo sapiens, MDA-MB-231, source data sheet, single values of three experiments, read-out: MTT IC50 MDA-MB-231
[23] = source data sheet, single values of three experiments, read-out: MTT IC50 MDA-MB-231
[24] = Mus musculus, CT26, 72 h, MTT, 72 h, mean of at least three independent experiments, read-out: IC50 CT26
[25] = Mus musculus, CT26, source data sheet, single values of three experiments, read-out: MTT IC50 CT-26
[26] = source data sheet, single values of three experiments, read-out: MTT IC50 CT-26
[27] = Homo sapiens, HCT-116, 72 h, MTT, 72 h, mean of at least three independent experiments, read-out: IC50 HCT 116
[28] = Homo sapiens, HCT-116, source data sheet, single values of three experiments, read-out: MTT IC50 HCT-116
[29] = source data sheet, single values of three experiments, read-out: MTT IC50 HCT-116
[30] = Homo sapiens, A549, 72 h, MTT, 72 h, mean of at least three independent experiments, read-out: IC50 A549
[31] = Homo sapiens, A549, source data sheet, single values of three experiments, read-out: MTT IC50 A549
[32] = source data sheet, single values of three experiments, read-out: MTT IC50 A549
[33] = Homo sapiens, A-375, 72 h, MTT, 72 h, mean of at least three independent experiments, read-out: IC50 A375
[34] = Homo sapiens, A-375, source data sheet, single values of three experiments, read-out: MTT IC50 A375
[35] = source data sheet, single values of three experiments, read-out: MTT IC50 A375
[36] = MTT, 72 h, mean of at least three independent experiments, read-out: IC50 Hela
[37] = MTT, 72 h, mean of at least three independent experiments, read-out: IC50 MCF-7
[38] = MTT, 72 h, mean of at least three independent experiments, read-out: IC50 MIA PaCa-2
[39] = MTT, 72 h, mean of at least three independent experiments, read-out: IC50 MDA-MB-231
[40] = MTT, 72 h, mean of at least three independent experiments, read-out: IC50 CT26
[41] = MTT, 72 h, mean of at least three independent experiments, read-out: IC50 HCT 116
[42] = MTT, 72 h, mean of at least three independent experiments, read-out: IC50 A549
[43] = MTT, 72 h, mean of at least three independent experiments, read-out: IC50 A375

Row | Structure (SMILES) | IC50 [1, 12] [µM] | IC50 [1, 13] [µM] | IC50 [1, 14] | IC50 [2, 15] [µM] | IC50 [2, 16] [µM] | IC50 [2, 17] | IC50 [3, 18] [µM] | IC50 [3, 19] [µM] | IC50 [3, 20] | IC50 [4, 21] [µM] | IC50 [4, 22] [µM] | IC50 [4, 23] | IC50 [5, 24] [µM] | IC50 [5, 25] [µM] | IC50 [5, 26] | IC50 [6, 27] [µM] | IC50 [6, 28] [µM] | IC50 [6, 29] | IC50 [7, 32] | IC50 [9, 35] | further results
1 | C=C=C1CN2[C@H]3C[C@H]1[C@H](C=O)[C@@H]2Cc1c3n(S(=O)(=O)c2ccc(C)cc2)c2cc(F)ccc12 [Compound 15aj] | 18.8 | 21.3 | 16.8 µM and 18.3 µM | 30.3 | 33.5 | 28.1 µM and 29.2 µM | 24.1 | 24.2 | 22.1 µM and 26 µM | 14 | 16.4 | 11.5 µM and 14.1 µM | 24.3 | 23.7 | 23.2 µM and 26 µM | 18.9 | 20.1 | 20.3 µM and 16.2 µM | 27.4 µM and 22.6 µM | 11.2 µM and 13.4 µM | IC50 [7, 30]: 26.2 µM; IC50 [7, 31]: 28.5 µM; IC50 at 72 h [8]: > 100 µM; CC50 at 72 h [8]: > 100 µM; IC50 [9, 33]: 13.4 µM; IC50 [9, 34]: 15.7 µM
2 | C=C=C1CN2[C@H]3C[C@H]1[C@H](C=O)[C@@H]2Cc1c3n(S(=O)(=O)c2ccc(C)cc2)c2cccc(Br)c12 [Compound 15ae] | – | – | 34.5 µM and 31.3 µM and 30.4 µM | – | – | 35.2 µM and 29.7 µM and 31.4 µM | – | – | 39.9 µM and 44.1 µM and 36.8 µM | – | – | 25.1 µM and 24.3 µM and 26.8 µM | – | – | 32.8 µM and 27.5 µM and 30 µM | – | – | 30 µM and 26.1 µM and 27.9 µM | 44.1 µM and 40.9 µM and 43.6 µM | 23.6 µM and 17.1 µM and 20.5 µM | IC50 [1, 36]: 32.1 µM; IC50 [2, 37]: 32.1 µM; IC50 [3, 38]: 40.3 µM; IC50 [4, 39]: 25.4 µM; IC50 [5, 40]: 30.1 µM; IC50 [6, 41]: 28 µM; IC50 [7, 42]: 42.9 µM; CC50 [10]: > 100 µM; IC50 [10]: > 100 µM; IC50 [9, 43]: 20.4 µM
3 | C=C=C1CN2[C@H]3C[C@H]1[C@H](C=O)[C@@H]2Cc1c3n(S(=O)(=O)c2ccc(C)cc2)c2ccc(Br)cc12 [Compound 15af] | 8.56 | 9.81 | 7.52 µM and 8.35 µM | 18.1 | 15 | 20.1 µM and 19.2 µM | 20.2 | 20.5 | 23 µM and 17 µM | 5.39 | 5.02 | 7.05 µM and 4.11 µM | 15.8 | 13.8 | 18.8 µM and 14.8 µM | 9.98 | 11.7 | 8.41 µM and 9.85 µM | 12.5 µM and 14.9 µM | 9.41 µM and 6.25 µM | IC50 [7, 30]: 14.8 µM; IC50 [7, 31]: 17 µM; IC50 at 72 h [8]: > 100 µM; CC50 at 72 h [8]: > 100 µM; IC50 [9, 33]: 7.51 µM; IC50 [9, 34]: 6.87 µM
4 | C=C=C1CN2[C@H]3C[C@H]1[C@H](C(=O)C=C)[C@@H]2Cc1c3n(S(=O)(=O)c2ccc(C)cc2)c2ccccc12 [Compound 15aq] | – | – | 12.4 µM and 9.52 µM and 10.6 µM | – | – | 24.3 µM and 27.2 µM and 22.8 µM | – | – | 22.2 µM and 19.5 µM and 18.9 µM | – | – | 10.1 µM and 8.05 µM and 6.22 µM | – | – | 15.9 µM and 17.2 µM and 14.1 µM | – | – | 12.2 µM and 8.29 µM and 10.3 µM | 22.2 µM and 18.2 µM and 17.1 µM | 9.41 µM and 6.42 µM and 6.61 µM | IC50 [1, 36]: 10.9 µM; IC50 [2, 37]: 24.8 µM; IC50 [3, 38]: 20.2 µM; IC50 [4, 39]: 8.12 µM; IC50 [5, 40]: 15.7 µM; IC50 [6, 41]: 10.3 µM; IC50 [7, 42]: 19.2 µM; CC50 [10]: > 100 µM; IC50 [10]: > 100 µM; IC50 [9, 43]: 7.48 µM
5 | C=C=C1CN2[C@H]3C[C@H]1[C@H](C=O)[C@@H]2Cc1c3n(S(=O)(=O)c2ccc(C(F)(F)F)cc2)c2ccccc12 [Compound 15am] | – | – | – | – | – | – | – | – | – | – | – | – | – | – | – | – | – | – | – | – | IC50 [11]: > 50 µM
6 | C=C=C1CN2[C@H]3C[C@H]1[C@H](C=O)[C@@H]2Cc1c3n(S(=O)(=O)c2ccc(C)cc2)c2cc(Br)ccc12 [Compound 15ag] | 9.89 | 11.8 | 9.92 µM and 7.92 µM | 20.9 | 22.6 | 21.6 µM and 18.5 µM | 22.8 | 25 | 21.3 µM and 22 µM | 8.59 | 8.05 | 9.71 µM and 8.01 µM | 17.3 | 20 | 15.8 µM and 16.1 µM | 12.4 | 14 | 13 µM and 10.3 µM | 15.3 µM and 19.1 µM | 7.82 µM and 8.4 µM | IC50 [7, 30]: 18.2 µM; IC50 [7, 31]: 20.1 µM; IC50 at 72 h [8]: > 100 µM; CC50 at 72 h [8]: > 100 µM; IC50 [9, 33]: 8.88 µM; IC50 [9, 34]: 10.4 µM
